In article PMC11602988 (The Journal of Biological Chemistry, 2024):
Where a chain is given by its changes, count along the chain named. Read-outs that look alike come from different tables or passages of the source.

How the values were obtained:
OCT1 WT = biological target: T1, OCT1 WT (Homo sapiens, UniProt O15245); experiment: Uptake screening (transport ratio over empty vector), HEK293 cells overexpressing OCT1 WT; type: cell-based; parameters: expressed in transfected cells;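 also: intracellular substrate levels quantified by HPLC–tandem mass spectrometry after uptake in HBSS+ buffer at 37 °C, stable Flp-In HEK293 lines, fold change versus empty vector–transfected cells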
T1 sequence (O15245 1-554): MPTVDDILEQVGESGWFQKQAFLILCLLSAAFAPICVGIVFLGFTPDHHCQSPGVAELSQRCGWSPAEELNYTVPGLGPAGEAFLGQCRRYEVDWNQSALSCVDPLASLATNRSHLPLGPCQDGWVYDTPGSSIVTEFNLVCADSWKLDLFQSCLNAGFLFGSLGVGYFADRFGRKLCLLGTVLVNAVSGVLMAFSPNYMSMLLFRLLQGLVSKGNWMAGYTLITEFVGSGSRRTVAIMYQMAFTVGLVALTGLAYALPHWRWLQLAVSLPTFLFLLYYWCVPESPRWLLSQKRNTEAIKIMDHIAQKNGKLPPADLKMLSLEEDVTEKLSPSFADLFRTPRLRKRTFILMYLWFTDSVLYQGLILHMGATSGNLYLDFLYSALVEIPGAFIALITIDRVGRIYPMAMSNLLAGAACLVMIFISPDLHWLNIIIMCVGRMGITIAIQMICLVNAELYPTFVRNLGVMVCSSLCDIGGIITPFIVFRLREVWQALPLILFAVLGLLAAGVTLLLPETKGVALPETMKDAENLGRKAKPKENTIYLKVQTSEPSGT
Procedure: (§1) All experiments were carried out using transporter-overexpressing HEK293 cells. […] Cells were cultivated in Dulbecco’s Modified Eagle’s medium supplemented with 10% fetal calf serum, 100 U/ml penicillin, and 100 μg/ml streptomycin. Cells were passaged twice a week and kept in culture for no longer than 30 passages.
(§2) For uptake studies, 300,000 HEK293 cells were plated in each well of 24-well plates precoated with poly-D-lysine 48 prior to the experiment. On the day of the experiment, cells were washed once with prewarmed to 37 °C HBSS+ (Hank’s balanced salt solution supplemented with 10 mM Hepes, both Sigma-Aldrich). […] Uptake was stopped by adding ice-cold HBSS+ and cells were washed twice with ice-cold buffer before cell lysis was done using 80% acetonitrile containing an appropriate internal standard for eventual mass spectrometry. Relative quantification was done by comparison of transporter-overexpressing cells to empty vector–transfected controls. For uptake kinetic experiments, cells were incubated with increasing concentrations of substrate dissolved in HBSS+. Absolute quantification was done later by comparison to a standard curve in lysis buffer with known concentration.
(§3) Intracellular drug concentrations were detected and quantified by HPLC coupled to mass spectrometry. […] Substance-specific conditions were used to adjust the retention times of the analytes.
(§4) Transport ratios were determined as relative fold-increase of the uptake in transporter-overexpressing cells over empty vector–transfected control cells. For transport kinetic experiments, absolute substrate quantification was done by signal comparison to a standard curve with known concentrations. Net uptake was then determined by subtracting the uptake into empty vector–transfected cells from transporter-overexpressing cells. […] Vmax defines the maximum transport velocity, Km refers to the substrate concentration required to reach half vmax. The intrinsic clearance Clint is the ratio of vmax over Km.

OCT1 Phe244Ala variant = biological target: T2, OCT1 Phe244Ala variant (Homo sapiens, UniProt O15245, F244A); experiment: Uptake screening (transport ratio over empty vector), HEK293 cells overexpressing OCT1 Phe244Ala variant; type: cell-based; parameters: expressed in transfected cells;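 also: stably transfected HEK293 cells, intracellular substrate quantified by HPLC-tandem mass spectrometry in cell lysates, uptake in HBSS+ buffer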
T2 sequence (O15245 1-554 F244A): T1 sequence (O15245 1-554) with F244A
Procedure: as §1, §2, §3, §4

[1] = uptake ratio over empty vector, HEK293 cells overexpressing OCT1 WT
[2] = Phe244Ala uptake relative to WT
[3] = uptake ratio over empty vector, HEK293 cells overexpressing OCT1 Phe244Ala
[4] = Phe244Ala uptake relative to OCT1 WT
[5] = uptake ratio of OCT1 WT-overexpressing HEK293 cells over empty vector
[6] = uptake ratio of OCT1 Phe244Ala-overexpressing HEK293 cells over empty vector

Compound	Mean_transport_ratio_WT (OCT1 WT; [1])	relative_Phe244Ala_uptake_in% (OCT1 Phe244Ala variant; [2]) [%]	Mean_transport_ratio_Phe244Ala (OCT1 Phe244Ala variant; [3])	relative_Phe244Ala_uptake_in% (OCT1 Phe244Ala variant; [4]) [%]	Mean_transport_ratio_WT (OCT1 WT; [5])	Mean_transport_ratio_Phe244Ala (OCT1 Phe244Ala variant; [6])	further results
NCC(O)c1ccccc1 (centres unmarked) [Bisnorephedrine]	1.295	116.872	1.345	–	–	–	–
COc1cc2c(cc1OC)-c1c(C)c3ccc(OC)c(OC)c3c[n+]1CC2 [Dehydrocorydaline]	9.385	100.287	9.409	–	–	–	–
CC[N+](C)(C)c1cccc(O)c1 [Edrophonium]	25.947	101.017	26.201	–	–	–	–
CN=C(NC#N)NCCSCc1nc[nH]c1C [Cimetidin]	2.536	103.374	2.588	–	–	–	–
NC(N)=NC(N)=Nc1ccc(Cl)cc1 [CPB]	17.903	76.322	13.901	–	–	–	–
N=C(N)N1CCc2ccccc2C1 [Debrisoquin]	19.246	108.342	20.768	–	–	–	–
NCCc1c[nH]c2ccccc12 [Tryptamin]	2.619	–	1.149	9.229	–	–	–
CCOC(=O)c1ccc(OC(=O)CCCCCNC(=N)N)cc1 [Gabexate]	–	–	–	112.397	1.935	2.051	–
CC(C)N(CCC(C(N)=O)(c1ccccc1)c1ccccn1)C(C)C (centres unmarked) [Disopyramide]	1.334	27.882	1.093	–	–	–	–
O=C(O[C@H]1C[N+]2(CCCOc3ccccc3)CCC1CC2)C(O)(c1cccs1)c1cccs1 [(R)-Aclidinium]	5.059	126.640	6.14	–	–	–	–
NC(=Nc1ccccc1)Nc1ccccc1 [Diphenylguanidine]	–	–	–	–	–	–	Mean_transport_ratio_WT (OCT1 WT): 2.037; Mean_transport_ratio_Phe244Ala (OCT1 Phe244Ala variant): 1.952; relative_Phe244Ala_uptake_in% (OCT1 Phe244Ala variant): 91.817%
O=C(OC1C[N+]2(CCCOc3ccccc3)CCC1CC2)C(O)(c1cccs1)c1cccs1 [(S)-Aclidinium]	4.495	205.468	8.181	–	–	–	–
CNCc1ccc(-c2[nH]c3cc(F)cc4c3c2CCNC4=O)cc1 [Rucaparib]	2.018	–	2.644	161.437	–	–	–
Cc1cc(N)c(OC(C)C)cc1C1CCNCC1 [1380575-45-0]	4.645	149.293	6.442	–	–	–	–
NC(N)=NCc1cccc(I)c1 [Metaiodobenzylguanidine]	–	–	–	96.674	11.544	11.193	–
CN(C)C(=O)Oc1cccc([N+](C)(C)C)c1 [Neostigmine]	–	–	–	23.835	51.144	12.952	–
CCCCNC(=N)NC(=N)N [Buformin]	33.648	42.469	14.865	–	–	–	–
NCC(O)c1cccc(O)c1 (centres unmarked) [Norphenylephrine]	–	–	–	40.709	2.898	1.772	–

Compound	Mean_transport_ratio_WT (OCT1 WT; [1])	relative_Phe244Ala_uptake_in% (OCT1 Phe244Ala variant; [2]) [%]	Mean_transport_ratio_Phe244Ala (OCT1 Phe244Ala variant; [3])	relative_Phe244Ala_uptake_in% (OCT1 Phe244Ala variant; [4]) [%]	Mean_transport_ratio_WT (OCT1 WT; [5])	Mean_transport_ratio_Phe244Ala (OCT1 Phe244Ala variant; [6])	further results
CNCCc1c[nH]c2ccc(O)cc12 [N-Methylserotonin]	–	–	–	24.160	31.114	8.275	–
C[N+]1(CCC(C(N)=O)(c2ccccc2)c2ccccc2)CCCCC1 [Fenpiverinium]	–	–	–	131.946	38.408	50.359	–
(-)-Sparteine	–	–	–	–	–	–	Mean_transport_ratio_WT (OCT1 WT): 5.032; Mean_transport_ratio_Phe244Ala (OCT1 Phe244Ala variant): 4.411; relative_Phe244Ala_uptake_in% (OCT1 Phe244Ala variant): 84.604%
C[n+]1ccc(-c2ccccc2)cc1 [MPP^+, 1-Methyl-4-phenylpyridinium]	–	–	–	63.172	45.919	29.377	–
COc1cc2c(cc1OC)-c1cc3ccc4c(c3c[n+]1CC2)OCO4 [Epiberberine]	22.185	84.587	18.92	–	–	–	–
CNC(C)Cc1ccc2c(c1)OCO2 (centres unmarked) [3,4-Methylendioxy-N-methylamphetamin]	–	–	–	158.013	1.723	2.142	–
CNC[C@H](O)c1cccc(O)c1 [Phenylephrine]	9.854	–	3.61	29.477	–	–	–
CC(NCCc1ccc(O)cc1)C(O)c1ccc(O)cc1 (centres unmarked) [Ritodrine]	8.916	–	12.33	143.135	–	–	–
C[C@H]1N=C(N(C)C)N=C(N)N1 [Imeglimin]	–	–	–	25.831	32.655	9.177	–
N=C(N)NC(=O)c1nc(Cl)c(N)nc1N [Amiloride]	–	–	–	–	–	–	Mean_transport_ratio_WT (OCT1 WT): 37.597; Mean_transport_ratio_Phe244Ala (OCT1 Phe244Ala variant): 23.504; relative_Phe244Ala_uptake_in% (OCT1 Phe244Ala variant): 61.492%
C=CCN1CCCC1CNC(=O)c1cc(S(N)(=O)=O)cc(OC)c1OC (centres unmarked) [Veralipride]	1.907	–	5.345	478.904	–	–	–
CC(C)NC[C@H](O)COc1ccc(O)cc1 [S-Prenalterol]	3.969	–	4.341	112.541	–	–	–
Cc1cc(O)cc(C)c1OCC(C)N (centres unmarked) [4-Hydroxy mexiletine]	–	–	–	23.363	3.163	1.505	–
CN(C)CCc1c[nH]c2ccc(C[C@@H]3COC(=O)N3)cc12 [(R)-Zolmitriptan]	–	–	–	–	–	–	Mean_transport_ratio_WT (OCT1 WT): 34.392; Mean_transport_ratio_Phe244Ala (OCT1 Phe244Ala variant): 13.515; relative_Phe244Ala_uptake_in% (OCT1 Phe244Ala variant): 37.478%
NCC(O)c1ccc(O)cc1 (centres unmarked) [Octopamine]	–	–	–	54.574	3.942	2.606	–
O=S(=O)(c1cccc2cnccc12)N1CCCNCC1 [Fasudil]	–	–	–	–	1	1.171	–
c1c2c(cc3c1OCO3)-c1cc3ccc4c(c3c[n+]1CC2)OCO4 [Coptisine]	12.003	90.627	10.972	–	–	–	–
c1cnn(C2CCNCC2)c1 [762240-09-5]	4.49	3.421	1.119	–	–	–	–
